The text below walks through data of patent US4443246A, “Herbicidal pyridyl-ethoxy-phenyl urea derivatives” (Takeda Chemical Industries, Ltd., priority 1981, dated 1984).

Each structure is given as a SMILES string.

One data set concerns weeds. The conditions noted are these: prior art, in words; cited from earlier work.
Another data set has as its system Corn. The data set is described as follows: Phytotoxicity to crop (corn), foliar pot test. The class given is in vivo, Zea mays L. The conditions noted are these: 14 days after foliar spray. The protocol:
900 cm^2 -Plastic pots are packed with crop-filed soil and sown with seeds of Red root pigweed (Amaranthus retroflexus L.), Purple lambsquarter (Chenopodium album (L.) var. centrorubrum Makino), Oriental smartweed, (Polygonum Blumei Meisn.), Common purslane (Portulaca oleracea L.), Tall morningglory (Ipomoea purpurea (L.) Roth), Cocklebur (Xanthium strumarium L.), Velvetleaf (Abutilon theophrasti Medic.), Jimson weed (Datura stramonium L.) and Corn (Zea mays L.)
These test plants are grown in a greenhouse for 9-14 days. When the true leaves sprouted, these pots are placed in a chamber of 1000 cm^2, where 10 ml each of solutions each containing a given weight of the test compound is applied to each plant from the above with a small spraygun so that each drug solution is applied to leaves and stalks of the respective plants homogeneously. These pots are then left standing in the greenhouse for 14 days. Then, the above-ground portions of each of the thus treated plants, which have remained non-withering, are collected by cutting, followed by weighing while they are fresh.
The non-withering ratio is calculated on the basis of the corresponding weight of the control (non-treated) plants as 100%. The phytotoxicity and herbicidal effect of the test compound are evaluated on the basis of the following criteria. The test solution is prepared by dissolving the test compound of a given weight in 1 ml of acetone containing 1% of a surface-active agent, Tween 20® (Kao Atlas Co., Japan), which is diluted with deionized water to make the total volume to be 10 ml.
To dissolve or disperse the test compound completely in the acetone, stirring by means of super-sonic wave is employed.
Phytotoxicity to crop (corn) is indicated with the following indexes:
(The indexes 0 and 1 to crop denote the test compound can be practically applicable to crop.)

Data set [1] in a line: Toxicity to mammals (LD50, orally in mice). The note with it: mouse, in vivo, po.
A further data set is described as follows: Toxicity to fishes (TLm). The conditions noted are these: in vivo.

In the case of `CN(C)C(=O)Nc1ccc(Oc2ccc(Cl)cc2)cc1` [chloroxuron, N'-[4-(4-chlorophenoxy)phenyl]-N,N-dimethylurea], in the data set with weeds, the herbicidal activity entry is “have herbicidal activity”.

Turning to `CCc1ccc(CCOc2ccc(NC(=O)N(C)C)cc2)nc1` [Compound No. 2, N,N-dimethyl-N'-[4-[2-(5-ethyl-2-pyridyl)ethoxy]phenyl]urea], the “Phytotoxicity Corn” value in the data set with Corn (Application rate 10) and in the data set with Corn (Application rate 20) was 1 (Negligible 0.1 to 12.5) each time.

With `CON(C)C(=O)Nc1ccc(OCCc2cccc(C)n2)cc1` [Compound No. 3, N-methoxy-N-methyl-N'-[4-[2-(6-methyl-2-pyridyl)ethoxy]phenyl]urea], the “Phytotoxicity Corn” value with Corn (Application rate 10) and in the data set on Corn (Application rate 20) was 1 (Negligible 0.1 to 12.5) throughout.

One may read the LD50 as the dose at which mortality reaches 50%. Low readings indicate greater toxicity, high ones lower toxicity. The term LC50 denotes the concentration lethal to half of the exposed cells or organisms. A high value points to lower toxicity. As to `Cc1cccc(CCOc2ccc(NC(=O)N(C)C)cc2)n1` [Compound No. 1, N,N-dimethyl-N'-[4-[2-(6-methyl-2-pyridyl)ethoxy]phenyl]urea], the “Phytotoxicity Corn” value in the data set with Corn (Application rate 10) and in the data set with Corn (Application rate 20) was 0 (None 0) in each case. This compound displayed an LD50 in data set [1] not below 300 mg/kg. Also, the LC50 in the data set “Toxicity to fishes (TLm)” was not below 10 µg/mL.
